Measurements published in patent publication US20220264878A1, “HERBICIDAL COMPOSITION CONTAINING R-TYPE PYRIDYLOXY CARBOXYLIC ACID DERIVATIVE AND USE THEREOF” (Qingdao Kingagroot Chemical Compound Co., Ltd., priority 2019, published 2022).
Like-named read-outs stand apart in the source and are kept apart here.

Legend:
Type in all cases: in vivo
Conyza Canadensis = experiment: Post-emergence foliage spray, pot culture, fresh weight inhibition (Tables 151-206; 20 days)
Experimental: (§1) Table 151-206: Digitaria sanguinalis, Amaranthus retroflexus, Conyza Canadensis, Capsella bursa-pastoris, Eleusine indica were collected in Huangdao of Shandong Province, Sinapis arvensis were collected in Sixian of Anhui Province, Alopecurus japonicus were collected in Tianchang of Anhui Province, Veronica didyma were collected in Siyang of Jiangsu Province.
(§2) The above weeds were cultivated by a pot culture method. […] Full and uniform weed seeds were selected, soaked in warm water at 25° C. for 6 hours, and germinated in a 28° C. biochemical incubator (darkness). The weed seeds that had just germinatedwere evenly placed on the surface of the soil and then covered with 0.5-1 cm soil according to the sizes of seeds.
(§3) The culture was carried out in a controllable sunlight greenhouse at 20 to 30° C., in natural light, and relative humidity of 57% to 72%.
(§4) The technical materials were all dissolved in acetone, and diluted with an aqueous solution containing 0.1% emulsifier Tween-80. The dilution is performed as required.
(§5) A ratio of the active ingredient A to the active ingredient B and amounts thereof in each group depends on the characteristics and toxicity of the two agents, as well as the main application purpose of a corresponding formulation. Based on the pre-tests in this study, the dosage of the active ingredient A and B applied alone and in combination were shown in the tables. Water containing the solvent and emulsifier same with the above groups but free of the agents was used as a blank control.
(§6) Table 1-48, 51-98, 101-148, 151-206: […] per treatment, that is, a total of 60 weeds were treated in one treatment.
(§7) Table 151-206: The agents were used for only once in the experiment. In the stage of weeds with 3˜4 leaves, the weeds were thinned out to maintain 15 weeds per pot and 45 weeds for each treatment, then continued to be cultured to 4˜5 leaves stage of grassy weeds, 5˜6 leaves stage of broadleaf weeds, and treated.
(§8) The well-cultured weeds were evenly placed on a platform with an area of 0.5 m^2, and a solution of agents was sprayed on the stems and leaves thereof by the 3WP-2000-type walking spray tower at a dosage of 450 kg/ha and at a spray pressure of 0.3 MPa. After all the solution was sprayed, the valve was closed. After 30 seconds, the door of the spray tower was opened, and the nutritional bowl was taken out. Then the valve was opened, and the spray tube was cleaned by spraying 50 ml of water.
(§9) A pot-culture method was employed. For the cultivation of weeds, please refer to the Section 1.1), and “Pesticide guidelines for laboratory bioactivity tests—herbicides”. As to a method for applying agents, please refer to the section 2.3.2), that is, a foliage treatment was employed. After the treatment, the weeds were routinely cultured in a greenhouse.
(§10) A method for investigating absolute number was employed, wherein whole seedlings of survival weeds were cut off with a blade along the soil surface, and the fresh weight of the weeds was weighed with an analytical balance. For dead weeds, the fresh weight thereof was zero.
(§11) Table 151-206: The investigation was performed after 20 days of the treatment for only once.
(§12) Theoretical fresh weight inhibition rate of a combination of two active ingredients in each group was calculated by the Gowing method (E0=X+Y−X*Y/100), and then compared with an actually measured inhibition rate (E), thereby effect of the combination (hereafter referred to as combined effect) on weeds was evaluated: the value of E-E0, which was greater than 10%, corresponded to a synergistic effect, the value of E-E0, which was less than −10%, corresponded to an antagonistic effect, and the value of E-E0, which was from −10% to 10%, corresponded to an additional effect.

Veronica didyma = experiment: as above
Experimental: as §1, §2, §3, §4, §5, §6, §7, §8, §9, §10, §11, §12

Sinapis arvensis = experiment: as above
Experimental: as §1, §2, §3, §4, §5, §6, §7, §8, §9, §10, §11, §12

Eleusine indica = experiment: as above
Experimental: as §1, §2, §3, §4, §5, §6, §7, §8, §9, §10, §11, §12

Alopecurus japonicus = experiment: as above
Experimental: as §1, §2, §3, §4, §5, §6, §7, §8, §9, §10, §11, §12

Digitaria sanguinalis = experiment: as above; details: Digitaria sanguinalis, 480 h, 20 days, read-out: Control effect (%) of A applied alone in corresponding dose; for pest or weed control at 75 g/ha: A 75 g a.i./ha; for pest or weed control at 150 g/ha: A 150 g a.i./ha
Experimental: as §1, §2, §3, §4, §5, §6, §7, §8, §9, §10, §11, §12

Capsella bursa-pastoris = experiment: as above; details: Capsella bursa-pastoris, 480 h, read-out: Control effect (%) of A applied alone in corresponding dose
Experimental: as §2, §4, §5
(§13) In the stage of weeds with 3˜4 leaves, the weeds were thinned out to maintain 15 weeds per pot and 45 weeds for each treatment, then continued to be cultured to 4˜5 leaves stage of grassy weeds, 5˜6 leaves stage of broadleaf weeds, and treated.
as §8, §9, §10
(§14) Wherein, in the formula, X represented the fresh weight inhibition rate of the active ingredient A in a dosage of P, and Y represented the fresh weight inhibition rate of the active ingredient B in a dosage of Q.

Amaranthus retroflexus [1] = experiment: as above
Experimental: as §2, §4, §5, §13, §8, §9, §10, §14

Acalypha australis = experiment: Post-emergence foliage spray, pot culture, fresh weight inhibition (Tables 1-48, 51-98, 101-148; 24 days)
How it was run: (§15)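 Greenhouse pot plants (20–30 °C, natural light, 57–72% RH) were sprayed once on foliage at 450 kg/ha and 0.3 MPa, at the 5–6-leaf (grass) or 6–7-leaf (broadleaf) stage. Compounds were in acetone diluted with 0.1% Tween-80 water. Surviving shoots were weighed at 24 days; dead plants counted as zero.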

Amaranthus retroflexus [2] = experiment: as above
How it was run: as §15

Chenopodium album = experiment: as above; details: Table 95
How it was run: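 Pot-grown weeds were thinned to 15 per pot (45 per treatment) and sprayed on foliage at the 5–6-leaf stage for grasses or the 6–7-leaf stage for broadleaves. Agents were dissolved in acetone with 0.1% Tween-80 and applied at 450 kg/ha spray volume and 0.3 MPa. Plants were then kept in a greenhouse. Above-ground fresh weight of survivors, with dead plants counted as zero, gave inhibition versus a solvent/emulsifier blank.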

[3] = A alone 75 g a.i./ha, 20 days after treatment
[4] = A alone 150 g a.i./ha, 20 days after treatment

## COC(=O)[C@@H](C)Oc1nc(F)c(Cl)c(N)c1Cl [Compound A67]
Conyza Canadensis; A 75 g a.i./ha, 20 days
  Control effect (%) of A applied alone in corresponding dose: 45.9%
Conyza Canadensis; A 150 g a.i./ha, 20 days
  Control effect (%) of A applied alone in corresponding dose: 65.6%
Veronica didyma; A 75 g a.i./ha, 20 days
  Control effect (%) of A applied alone in corresponding dose: 23.2%
Veronica didyma; A 150 g a.i./ha, 20 days
  Control effect (%) of A applied alone in corresponding dose: 43.1%
Sinapis arvensis; A 75 g a.i./ha, 20 days
  Control effect (%) of A applied alone in corresponding dose: 45.7%
Sinapis arvensis; A 150 g a.i./ha, 20 days
  Control effect (%) of A applied alone in corresponding dose: 72.8%
Eleusine indica; A 75 g a.i./ha, 20 days
  Control effect (%) of A applied alone in corresponding dose: 42.5%
Eleusine indica; A 150 g a.i./ha, 20 days
  Control effect (%) of A applied alone in corresponding dose: 75.3%
Alopecurus japonicus; A 75 g a.i./ha, 20 days
  Control effect (%) of A applied alone in corresponding dose: 28.7%
Alopecurus japonicus; A 150 g a.i./ha, 20 days
  Control effect (%) of A applied alone in corresponding dose: 52.4%
Digitaria sanguinalis
  pest or weed control at 75 g/ha: 23.4%
  pest or weed control at 150 g/ha: 62.2%
Capsella bursa-pastoris; A 75 g a.i./ha, 20 days
  pest or weed control at 75 g/ha: 51.4%
Capsella bursa-pastoris; A 150 g a.i./ha, 20 days
  pest or weed control at 150 g/ha: 75.6%
Amaranthus retroflexus [1]; A 75 g a.i./ha, 20 days
  Control effect (%) of A applied alone in corresponding dose: 31.7%
Amaranthus retroflexus [1]; A 150 g a.i./ha, 20 days
  Control effect (%) of A applied alone in corresponding dose: 63.9%

## C[C@@H](Oc1nc(F)c(Cl)c(N)c1Cl)C(=O)OCc1ccco1 [Compound A163]
Conyza Canadensis; [3]
  Control effect (%) of A applied alone in corresponding dose: 39.0%
Conyza Canadensis; [4]
  Control effect (%) of A applied alone in corresponding dose: 55.8%
Veronica didyma; [3]
  Control effect (%) of A applied alone in corresponding dose: 18.6%
Veronica didyma; [4]
  Control effect (%) of A applied alone in corresponding dose: 34.5%
Sinapis arvensis; [3]
  Control effect (%) of A applied alone in corresponding dose: 29.6%
Sinapis arvensis; [4]
  Control effect (%) of A applied alone in corresponding dose: 47.2%
Eleusine indica; [3]
  Control effect (%) of A applied alone in corresponding dose: 31.7%
Eleusine indica; [4]
  Control effect (%) of A applied alone in corresponding dose: 56.0%
Alopecurus japonicus; [3]
  Control effect (%) of A applied alone in corresponding dose: 24.1%
Alopecurus japonicus; [4]
  Control effect (%) of A applied alone in corresponding dose: 44.0%
Digitaria sanguinalis
  pest or weed control at 75 g/ha: 16.6%
  pest or weed control at 150 g/ha: 45.4%
Capsella bursa-pastoris; [3]
  pest or weed control at 75 g/ha: 41.1%
Capsella bursa-pastoris; [4]
  pest or weed control at 150 g/ha: 60.5%
Amaranthus retroflexus [1]; [3]
  Control effect (%) of A applied alone in corresponding dose: 26.6%
Amaranthus retroflexus [1]; [4]
  Control effect (%) of A applied alone in corresponding dose: 53.7%

## O=C(O)c1cc(Oc2ccc(C(F)(F)F)cc2Cl)ccc1[N+](=O)[O-] [acifluorfen-sodium]
Acalypha australis; B 37.5 g a.i./ha
  Control effect (%) of B applied alone in corresponding dose: 5.8%
Acalypha australis; B 75 g a.i./ha
  Control effect (%) of B applied alone in corresponding dose: 11.6%
Acalypha australis; B 150 g a.i./ha
  Control effect (%) of B applied alone in corresponding dose: 46.6%
Acalypha australis; B 300 g a.i./ha
  Control effect (%) of B applied alone in corresponding dose: 85.3%
Amaranthus retroflexus [2]; acifluorfen-sodium 37.5 g a.i./ha
  Control effect (%) of B applied alone in corresponding dose: 4.4%
Amaranthus retroflexus [2]; acifluorfen-sodium 75 g a.i./ha
  Control effect (%) of B applied alone in corresponding dose: 10.3%
Amaranthus retroflexus [2]; acifluorfen-sodium 150 g a.i./ha
  Control effect (%) of B applied alone in corresponding dose: 45.1%
Amaranthus retroflexus [2]; acifluorfen-sodium 300 g a.i./ha
  Control effect (%) of B applied alone in corresponding dose: 85.0%
Chenopodium album; 37.5 g a.i./ha
  Control effect (%) of B applied alone in corresponding dose: 2.0%
Chenopodium album; 75 g a.i./ha
  Control effect (%) of B applied alone in corresponding dose: 13.7%
Chenopodium album; 150 g a.i./ha
  Control effect (%) of B applied alone in corresponding dose: 45.0%
Chenopodium album; 300 g a.i./ha
  Control effect (%) of B applied alone in corresponding dose: 81.0%
